For one assay, the system named is J774. In words: Inhibitory activity against nitric oxide production in lipopolysaccharide (LPS)-activated macrophage -like J774.1 cell. Format: functional, cell-based, Mus musculus. Conditions: Mus musculus, J774.
Broadly, the IC50 is the midpoint of a concentration-inhibition curve. `CC(=O)O[C@H]1[C@@H](OC(C)=O)C(C)(C)C2C[C@@H](OC(C)=O)[C@@]3(O)C(=O)[C@@](C)(C=O)C[C@@H](OC(=O)c4ccccc4)C3[C@@]2(CO)[C@H]1OC(=O)c1ccccc1` (stereo partly drawn): the IC50 was determined as 23 µM. On the same count and under the same terms, the figure for `C=C[C@@]1(C)C[C@@H](OC(=O)c2ccccc2)C2[C@]3(COC(C)=O)C(C[C@@H](O)[C@@]2(O)C1=O)C(C)(C)[C@H](OC(C)=O)[C@H](OC(C)=O)[C@@H]3OC(=O)c1ccccc1` (stereo partly drawn) is 46.5 µM; for `C=C[C@@]1(C)C[C@@H](OC(=O)c2ccccc2)C2[C@]3(CO)C(C[C@@H](O)[C@@]2(O)C1=O)C(C)(C)[C@H](OC(C)=O)[C@H](OC(C)=O)[C@@H]3OC(=O)c1ccccc1` (stereo partly drawn) it is 17.3 µM. Same read-out and setting: with `C=C[C@@]1(C)C[C@@H](OC(=O)c2ccccc2)C2[C@]3(CO)C(C[C@@H](OC(C)=O)[C@@]2(O)C1=O)C(C)(C)[C@H](OC(C)=O)[C@H](O)[C@@H]3OC(=O)c1ccccc1` (stereo partly drawn) the figure was 22.9 µM; with `C=C[C@@]1(C)C[C@@H](OC(=O)c2ccccc2)C2[C@]3(CO)C(C[C@@H](OC(C)=O)[C@@]2(O)C1=O)C(C)(C)[C@H](OC(C)=O)[C@H](OC(C)=O)[C@@H]3OC(=O)c1ccccc1` (stereo partly drawn), 10.8 µM; with `C[C@@H]1C[C@H]2[C@@H]3CCC4=CC(=O)C=C[C@]4(C)[C@@]3(F)[C@@H](O)C[C@]2(C)[C@@]1(O)C(=O)CO` [DEXAMETHASONE], 170 µM.

Take `CNC(=N)NCCC[C@H](N)C(=O)O` [TILARGININE]: the midpoint of inhibition, the IC50, lay at 26 µM.

Staying with this assay, now noted: j774.
As for POLYMYXIN B, 27.8 µM corresponded to half-maximal inhibition (IC50).

Source of the values: ChEMBL document CHEMBL1136417, “Siphonols A-E: novel nitric oxide inhibitors from Orthosiphon stamineus of Indonesia” (Bioorg Med Chem Lett, 2003).
